Measured values from the NIST ThermoML archive (doi:10.1021/je9004189).
Numbers after ± are expanded uncertainties.

Legend:
[1] = 293.15 K, 101.33 kPa, Liquid
[2] = refractive index (Na D-line) (dimensionless); details: 293.15 K; 101.33 kPa; Liquid; Standard Abbe refractometry

Row | mass density ([1]; Vibrating tube method) | refractive index [2] | SMILES | mass density [1]
1 | 790 ± 1 kg/m3 | 1.366 ± 0.0007 | CCO [ethanol] | –
2 | 792 ± 1 kg/m3 | 1.3301 ± 0.0007 | CO [methanol] | –
3 | 879 ± 1 kg/m3 | 1.5011 ± 0.0007 | c1ccccc1 [benzene] | –

Row | SMILES | mass density ([1]; Vibrating tube method) | refractive index [2] | mass density [1]
4 | CC(C)=O [acetone] | – | 1.359 ± 0.0007 | 790 ± 1 kg/m3
